According to patent US20060035927A1, “Calcilytic compounds” (SmithKline Beecham Corporation, priority 1999, published 2006):

Tests used:
human osteoclasts = assay: Human osteoclast-mediated bone resorption assay; format: cell-based; details: 24 hours, bovine cortical bone particles
Description: The isolation of disaggregated human osteoclasts from fresh osteoclastoma tissue and the in vitro human osteoclast resorption assay were performed according to James, J. Bone Min. Res., Vol. 11, pp. 1453-1460. Briefly, human osteoclasts were seeded onto bovine cortical bone particles with compound or vehicle for 24 hours at 37° C. The culture media were then removed and the levels of the carboxy-terminal peptide of the α1 chain of human type I collagen were quantified as a biochemical readout of resorption, using a competitive binding enzyme linked immunosorbant assay (ELISA) (19) (Osteometer A/S, Rodovre, Denmark). The results are expressed as percent inhibition of resorption compared to supernatants derived from osteoclasts cultured in vehicle without inhibitor. IC50 values are determined from the resultant dose response curves.

[1] = rats, PTH dose of 80 ug/kg, published studies; cited from earlier work
osteopenic ovx rats [2] = assay: Ovariectomized rat Study 1: dynamic histomorphometry of proximal tibia; format: in vivo
Description: (§1) Seven month old virgin Sprague Dawley female rats were subjected to bilateral ovariectomy or sham surgery and the animals then held for a period of three months to allow the development of osteopenia. At that time a single sham group (n=10) and three groups of ovariectomized (ovx) animals (n=10-14) were assigned. The ovx groups were selected such that there was no significant difference in bone mineral density (“BMD”) of the lumbar spine, proximal tibia or distal femur between groups. Groups consisted of sham and ovx controls treated with dose vehicle (20% aqueous encapsin) and ovx groups treated with either N-[(2R-Hydroxy-3-[(3-chloro-2-cyano)phenoxy-propyl]-1,1-dimethyl-2-(2-naphthyl)ethyl amine hydrochloride (“calcilytic administered”) ([…] body weight daily p.o.) or rat PTH 1-34 (5 ug/kg body weight daily s.c.).
(§2) During the study blood samples were drawn for determination of circulating PTH and osteocalcin. BMD was determined by DXA (QDR4500 Hologic, Waltham, Mass.) prior to treatment and at weeks 4 and 8. At term tibiae were removed for histological analysis. All animals received tetracycline 10 and 3 days prior to the start of dosing and calcein (10 mg/kg) 10 and 3 days prior to sacrifice.
(§3) Bone samples were dehydrated through increasing concentrations of ethanol, defatted in acetone and embedded in methyl methacrylate (Polysciences, Inc., Warrington, Pa.). Longitudinal undecalcified sections (5 μm) sections of the proximal tibial were cut on a Leica microtome (SM2500S); the tissue blocks had been prestained with Villanueva stain. Histomorphometric analysis was carried out using an Osteomeasure system (OsteoMetrics Incorpotated), without knowledge of group allocation. Measurements within the tibial metaphysis were restricted to a mean tissue area of approximately 8 mm^2 beginning 1 mm below the growth plate. Primary measurements included area of bone and marrow (mm^2), bone area (mm^2), perimeter of bone (mm), single and double-labelled perimeter (sL.Pm, dL.Pm, m), osteoid perimeter (O.Pm, m) and eroded perimeter (Er.P, m). Derived indices included trabecular bone volume (% Tb.Ar), trabecular number (Th.N, mm^−1), trabecular thickness (Th.Th, μm), trabecular separation (Th.Sp, μm), bone formation rate, surface referent (BFR/Tb.Pm, μm^3/μm^2/year), BFR/Tb.Ar (bone area referent, %/year), BFR/B.Ar (tissue referent, %/year) and mineral apposition rate (MAR, μm/day), and percent labelled perimeter (% Lp). Statistical analysis was assessed by a two sided t-test.

plasma PTH = assay: Ovariectomized rat Study 1: circulating PTH levels (RIA); format: in vivo; details: Study 1, 5 ug/kg PTH s.c.
Description: as §1, §2
Timed plasma samples were collected relative to administration of compound or PTH. PTH 1-34 was measured by RIA (Nichols Institute Diagnostics, San Juan Capistrano, Calif.). The concentrations of compound in the plasma were quantified by LC/MS/MS (limit of detection 10 ng/ml).

[3] = tested on: primary human osteoblasts; assay: Osteoblast cAMP production, primary human osteoblasts; format: cell-based; details: compound 0.1, 1 and 10 uM, PTH 40 ng/ml positive control
Description: (§4) cAMP accumulation was measured in both human TF274 osteoblastic cells (derived by immortalization of human bone marrow stromal cells) see James, supra, and primary human osteoblasts derived from explants of trabecular bone as described in Beresford, Biochim. Biophys. Acta, Vol. 801, pp. 58-65 ([…]). cAMP levels in cell samples were measured using a non-radioactive protocol (Amersham kit). Alkaline phosphatase activity was determined using the standard colorimetric method as described previously in Gowen, Arth. Rheum., Vol. 31, pp. 1500-1507 (1988). N-[(2R-Hydroxy-3-[(3-chloro-2-cyano)phenoxy-propyl]-1,1-dimethyl-2-(2-naphthyl)ethyl amine hydrochloride was tested at 0.1, 1 and 10 uM. PTH 40 ng/ml was used as a positive control.

[4] = cited from earlier work
[5] = s.c. infusion 40 and 80 ug/kg/day over periods of 2 hours or more; cited from earlier work
osteopenic ovx rats [6] = assay: Ovariectomized rat Study 1: bone mineral density by DXA; format: in vivo; details: Study 1, ovx rats, 5 ug/kg daily PTH s.c., eight weeks
Description: as §1, §2

[7] = tested on: human TF274 osteoblastic cells; assay: Osteoblast cAMP production, TF274 cells; format: cell-based; details: compound 0.1, 1 and 10 uM, PTH 40 ng/ml positive control
Description: as §4

osteopenic ovx rats [8] = assay: Ovariectomized rat Study 2: calcilytic plus/minus 17β estradiol, histology and histomorphometry of proximal tibia; format: in vivo; details: Study 2, proximal tibia, static histomorphometry, vs ovx group
Description: as §3, with “Animals were prepared and monitored as described above. […] Dosing continued for 5 weeks at which point the animals were sacrificed and the tibiae were collected for histological analysis. Bone” for “Bone”, “(S[…]);” for “(SM2500S);”, “Derived indices included trabecular bone volume (% Tb.Ar), trabecular number (Th.N, mm^−1), trabecular thickness (Th.Th, μm), trabecular separation (Th.Sp, μm), bone formation rate, surface referent (BFR/Tb.Pm, μm^3/μm^2/year), BFR/Tb.Ar (bone area referent, %/year), BFR/B.Ar (tissue referent, %/year) and mineral apposition rate (MAR, μm/day), and percent labelled perimeter (% Lp).” left out

[9] = Study 1, proximal tibia, vs ovx control, calcilytic 100 mmol/kg p.o. or PTH 5 ug/kg s.c. daily
[10] = clinical, 0.4 ug/kg, 30 minutes after dosing

## 3,1,1-bis (2-methylpropyl)-4,7,10-trioxo-2,5,6,8,9,12-hexaazatridecanedioate [reference compound]
Human osteoclasts
  IC50: 0.9 µM

## PTH: parathyroid hormone; rat PTH 1-34 s.c. in the rat studies, PTH 40 ng/ml as positive control in osteoblast assays [reference compound]
[1]
  circulating level of PTH: 5,000-14,000 pg/ml
Osteopenic ovx rats [2]; Study 1, overall outcome
  bone formation and resorption, net bone gain or loss: increased both resorption and formation, but formation exceeded resorption, resulting in increased bone mass
Osteopenic ovx rats [2]; [9]
  bone formation: % labeled perimeter (% L.Pm.): elevated above the ovx control level
  bone formation: % osteoid perimeter (% Os.Pm): elevated above the ovx control level
Plasma PTH
  time of return of PTH levels to baseline after dosing: 2 to 4 h
Plasma PTH; compared with calcilytic-dosed animals
  PTH levels in animals given PTH: in the same range
[3]
  cAMP levels (basal): two-fold increase
[4]; clinical studies, approximate doses of 0.4-0.8 ug/kg body weight
  bone mass: increased bone mass
[4]; [10]
  circulating levels of PTH 1-34: approximately 90 pmol/l
  increase in circulating PTH levels: three-fold increase
[5]
  adverse effects of prolonged PTH infusion: rapid loss in body weight, hypercalcemia and histological abnormalities in the skeleton
Osteopenic ovx rats [6]
  bone mass (BMD) in the proximal tibia: returned to pre-ovx levels
[7]
  cAMP levels (basal): two-fold increase

## C[C@]12CC[C@@H]3c4ccc(O)cc4CC[C@H]3[C@@H]1CC[C@@H]2O [estradiol, 17β estradiol, reference compound]
Osteopenic ovx rats [8]
  % trabecular area (% Tb.Ar.) / ovx-induced bone loss: not significantly restored
